From PMC8745178, “Methyl 2-Halo-4-Substituted-5-Sulfamoyl-Benzoates as High Affinity and Selective Inhibitors of Carbonic Anhydrase IX” (International Journal of Molecular Sciences, 2021)

Experiments:
[1] = biological target: CAIX (Homo sapiens, UniProt Q16790); assay: fluorescent thermal shift assay (FTSA), CAIX; format: binding; details: for ΔGobs CAIX: pH 7
[2] = biological target: CAVI (Homo sapiens, UniProt P23280); assay: fluorescent thermal shift assay (FTSA), CAVI; format: binding; details: 37 °C; for ΔGintr CAVI: converted from Kd_intr, independent of pH; for ΔGobs CAVI: converted from Kd_obs, pH 7.0, FTSA
[3] = biological target: CAVII (Homo sapiens, UniProt P43166); assay: fluorescent thermal shift assay (FTSA), CAVII; format: binding; details: 37 °C; for ΔGintr CAVII: converted from Kd_intr, independent of pH; for ΔGobs CAVII: converted from Kd_obs, pH 7.0, FTSA
[4] = biological target: CAXIV (Homo sapiens, UniProt Q9ULX7); assay: fluorescent thermal shift assay (FTSA), CAXIV; format: binding; details: 37 °C; for ΔGintr CAXIV: converted from Kd_intr, independent of pH; for ΔGobs CAXIV: converted from Kd_obs, pH 7.0, FTSA
[5] = biological target: CAIII (Homo sapiens, UniProt P07451); assay: fluorescent thermal shift assay (FTSA), CAIII; format: binding; details: 37 °C; for ΔGintr CAIII: converted from Kd_intr, independent of pH; for ΔGobs CAIII: converted from Kd_obs, pH 7.0, FTSA
[6] = biological target: CAI (Homo sapiens, UniProt P00915); assay: fluorescent thermal shift assay (FTSA), CAI; format: binding; details: 37 °C; for ΔGintr CAI: converted from Kd_intr, independent of pH; for ΔGobs CAI: converted from Kd_obs, pH 7.0, FTSA
[7] = biological target: CAII (Homo sapiens, UniProt P00918); assay: fluorescent thermal shift assay (FTSA), CAII; format: binding; details: 37 °C; for ΔGintr CAII: converted from Kd_intr, independent of pH; for ΔGobs CAII: converted from Kd_obs, pH 7.0, FTSA
[8] = biological target: CAVA (Homo sapiens, UniProt P35218); assay: fluorescent thermal shift assay (FTSA), CAVA; format: binding; details: 37 °C; for ΔGintr CAVA: converted from Kd_intr, independent of pH; for ΔGobs CAVA: converted from Kd_obs, pH 7.0, FTSA
[9] = determination of pKa of the sulfonamide group by UV-VIS spectra at various pH; format: physicochemical; details: for f RSO2NH-, fraction of deprotonated sulfonamide: at pH 7.0, calculated from pKa; for pKa: calculated from spectra at various pH, 37 °C
[10] = biological target: CAXIII (Homo sapiens, UniProt Q8N1Q1); assay: fluorescent thermal shift assay (FTSA), CAXIII; format: binding; details: 37 °C; for ΔGintr CAXIII: converted from Kd_intr, independent of pH; for ΔGobs CAXIII: converted from Kd_obs, pH 7.0, FTSA
[11] = biological target: CAVB (Homo sapiens, UniProt Q9Y2D0); assay: fluorescent thermal shift assay (FTSA), CAVB; format: binding; details: 37 °C; for ΔGobs CAVB: converted from Kd_obs, pH 7.0, FTSA; for ΔGintr CAVB: converted from Kd_intr, independent of pH
[12] = biological target: CAIV (Homo sapiens, UniProt P22748); assay: fluorescent thermal shift assay (FTSA), CAIV; format: binding; details: 37 °C; for ΔGintr CAIV: converted from Kd_intr, independent of pH; for ΔGobs CAIV: converted from Kd_obs, pH 7.0, FTSA
[13] = biological target: CAXII (Homo sapiens, UniProt O43570); assay: fluorescent thermal shift assay (FTSA), CAXII; format: binding; details: 37 °C; for ΔGintr CAXII: converted from Kd_intr, independent of pH; for ΔGobs CAXII: converted from Kd_obs, pH 7.0, FTSA
CAXII, sequence (O43570 25-354): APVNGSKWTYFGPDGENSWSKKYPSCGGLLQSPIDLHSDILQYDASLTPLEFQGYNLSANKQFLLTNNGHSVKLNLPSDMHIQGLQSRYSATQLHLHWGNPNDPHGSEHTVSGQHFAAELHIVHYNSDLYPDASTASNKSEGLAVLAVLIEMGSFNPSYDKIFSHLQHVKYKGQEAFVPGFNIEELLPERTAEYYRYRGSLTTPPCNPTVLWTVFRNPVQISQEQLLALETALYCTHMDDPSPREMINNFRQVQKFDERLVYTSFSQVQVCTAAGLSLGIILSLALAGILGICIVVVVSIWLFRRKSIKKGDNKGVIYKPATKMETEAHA

CAI, sequence (P00915 whole entry): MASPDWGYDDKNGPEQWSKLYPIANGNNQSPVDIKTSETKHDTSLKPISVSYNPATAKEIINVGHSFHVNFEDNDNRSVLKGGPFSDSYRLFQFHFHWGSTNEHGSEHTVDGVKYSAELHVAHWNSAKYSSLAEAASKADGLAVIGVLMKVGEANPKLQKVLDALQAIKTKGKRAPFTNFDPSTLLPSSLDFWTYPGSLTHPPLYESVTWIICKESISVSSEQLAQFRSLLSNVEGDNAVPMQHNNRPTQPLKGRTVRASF
CAVII, sequence (P43166 whole entry): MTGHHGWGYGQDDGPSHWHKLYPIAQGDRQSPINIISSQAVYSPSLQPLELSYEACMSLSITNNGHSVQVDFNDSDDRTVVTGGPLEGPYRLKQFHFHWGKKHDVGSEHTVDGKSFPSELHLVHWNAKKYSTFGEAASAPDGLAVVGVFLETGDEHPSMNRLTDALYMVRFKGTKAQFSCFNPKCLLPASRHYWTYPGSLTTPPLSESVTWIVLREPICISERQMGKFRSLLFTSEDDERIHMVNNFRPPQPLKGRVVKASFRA
CAIV, sequence (P22748 19-312): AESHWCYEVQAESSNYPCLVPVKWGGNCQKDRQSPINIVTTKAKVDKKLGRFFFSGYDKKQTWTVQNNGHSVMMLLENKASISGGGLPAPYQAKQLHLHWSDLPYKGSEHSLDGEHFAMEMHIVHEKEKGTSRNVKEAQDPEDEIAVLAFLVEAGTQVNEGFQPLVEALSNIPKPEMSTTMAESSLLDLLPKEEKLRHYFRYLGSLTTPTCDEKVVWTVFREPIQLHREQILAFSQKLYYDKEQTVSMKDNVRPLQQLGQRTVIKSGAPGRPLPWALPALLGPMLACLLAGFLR
CAIII, sequence (P07451 whole entry): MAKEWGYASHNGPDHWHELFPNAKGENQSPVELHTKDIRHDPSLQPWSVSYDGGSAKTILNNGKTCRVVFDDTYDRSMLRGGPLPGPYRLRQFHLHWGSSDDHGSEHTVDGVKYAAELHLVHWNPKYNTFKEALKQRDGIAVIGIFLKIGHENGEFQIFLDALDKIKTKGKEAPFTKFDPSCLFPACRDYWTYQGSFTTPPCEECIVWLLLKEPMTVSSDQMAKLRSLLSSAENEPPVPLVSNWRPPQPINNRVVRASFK
CAXIV, sequence (Q9ULX7 16-337): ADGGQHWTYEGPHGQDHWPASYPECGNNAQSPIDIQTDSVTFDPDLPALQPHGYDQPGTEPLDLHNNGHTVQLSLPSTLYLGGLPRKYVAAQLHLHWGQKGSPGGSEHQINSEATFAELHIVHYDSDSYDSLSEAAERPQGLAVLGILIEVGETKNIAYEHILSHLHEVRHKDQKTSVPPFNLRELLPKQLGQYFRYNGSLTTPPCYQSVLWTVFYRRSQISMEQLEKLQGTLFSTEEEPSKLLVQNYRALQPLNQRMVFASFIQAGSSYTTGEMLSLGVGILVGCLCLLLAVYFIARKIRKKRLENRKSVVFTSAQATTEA
CAVA, sequence (P35218 39-305): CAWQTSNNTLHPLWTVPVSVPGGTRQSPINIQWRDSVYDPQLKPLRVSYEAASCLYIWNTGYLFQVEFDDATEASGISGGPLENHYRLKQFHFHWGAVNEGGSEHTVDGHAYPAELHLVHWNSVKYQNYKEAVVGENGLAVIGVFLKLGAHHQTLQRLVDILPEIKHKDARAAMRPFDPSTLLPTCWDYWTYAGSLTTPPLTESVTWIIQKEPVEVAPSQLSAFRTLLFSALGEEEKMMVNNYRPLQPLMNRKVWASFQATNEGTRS
CAVB, sequence (Q9Y2D0 34-317): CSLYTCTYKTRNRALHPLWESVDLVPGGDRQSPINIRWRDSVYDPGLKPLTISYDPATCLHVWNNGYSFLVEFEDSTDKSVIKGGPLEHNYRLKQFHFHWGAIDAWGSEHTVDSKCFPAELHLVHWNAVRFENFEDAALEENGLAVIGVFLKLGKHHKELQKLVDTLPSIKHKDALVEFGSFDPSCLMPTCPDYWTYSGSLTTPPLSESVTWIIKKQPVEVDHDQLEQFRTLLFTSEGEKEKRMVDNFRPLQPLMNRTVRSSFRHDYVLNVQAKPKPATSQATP
CAVI, sequence (P23280 18-308): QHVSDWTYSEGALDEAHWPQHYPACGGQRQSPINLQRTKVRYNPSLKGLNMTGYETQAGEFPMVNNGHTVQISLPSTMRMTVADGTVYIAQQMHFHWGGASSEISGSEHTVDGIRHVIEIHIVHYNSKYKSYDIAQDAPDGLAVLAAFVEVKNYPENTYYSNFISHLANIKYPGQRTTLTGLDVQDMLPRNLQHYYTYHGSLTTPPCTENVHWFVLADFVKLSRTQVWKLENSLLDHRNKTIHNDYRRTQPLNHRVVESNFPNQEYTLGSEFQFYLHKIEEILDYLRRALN
CAXIII, sequence (Q8N1Q1 whole entry): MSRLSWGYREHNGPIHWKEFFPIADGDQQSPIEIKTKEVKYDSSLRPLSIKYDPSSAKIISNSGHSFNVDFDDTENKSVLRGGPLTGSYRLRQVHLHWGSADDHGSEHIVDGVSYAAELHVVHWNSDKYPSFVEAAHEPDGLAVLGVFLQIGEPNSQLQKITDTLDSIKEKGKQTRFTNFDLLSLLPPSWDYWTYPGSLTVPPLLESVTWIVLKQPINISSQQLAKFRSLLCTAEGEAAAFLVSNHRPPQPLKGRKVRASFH

SMILES	ΔGobs CAIX [1]	ΔGintr CAVI [2]	ΔGobs CAVI [2]	ΔGintr CAVII [3]	ΔGobs CAVII [3]	ΔGintr CAXIV [4]	ΔGobs CAXIV [4]	ΔGintr CAIII [5]	ΔGobs CAIII [5]	ΔGintr CAI [6]	ΔGobs CAI [6]	ΔGintr CAII [7]	ΔGobs CAII [7]	f RSO2NH-, fraction of deprotonated sulfonamide [9]	pKa [9]	ΔGintr CAXIII [10]	ΔGobs CAXIII [10]	ΔGobs CAVB [11]	ΔGintr CAIX [1]	ΔGintr CAVB [11]	also measured
COC(=O)c1cc(S(N)(=O)=O)c(Cl)cc1S(=O)(=O)CCc1ccccc1 [Compound 9d, Methyl 4-chloro-2-(2-phenylethylsulfonyl)-5-sulfamoylbenzoate]	-12.2 kcal/mol	-14.2 kcal/mol	-10.8 kcal/mol	-15.5 kcal/mol	-12.9 kcal/mol	-15.2 kcal/mol	-12.6 kcal/mol	-11.4 kcal/mol	-8.56 kcal/mol	-11.3 kcal/mol	-9.2 kcal/mol	-15 kcal/mol	-12.5 kcal/mol	3.8%	8.4	-14.2 kcal/mol	-12.1 kcal/mol	-12.7 kcal/mol			ΔGintr CAVA [8]: -11.8 kcal/mol; ΔGobs CAVA [8]: -9.51 kcal/mol
COC(=O)c1cc(S(N)(=O)=O)c(SC2CCCCC2)cc1Br [Compound 4b, Methyl 2-bromo-4-(cyclohexylsulfanyl)-5-sulfamoylbenzoate]	-14.1 kcal/mol	-14.1 kcal/mol	-8.87 kcal/mol	-13.7 kcal/mol	-9.44 kcal/mol	-15.2 kcal/mol	-10.9 kcal/mol	-10.7 kcal/mol	-6.14 kcal/mol	-11.1 kcal/mol	-7.34 kcal/mol	-13.7 kcal/mol	-9.51 kcal/mol	0.3%		-14.4 kcal/mol	-10.6 kcal/mol	-7.77 kcal/mol	-18.5 kcal/mol	-11.9 kcal/mol	ΔGintr CAVA [8]: ≥ -9.2 kcal/mol; ΔGobs CAVA [8]: ≥ -5.26 kcal/mol
COC(=O)c1cc(S(N)(=O)=O)c(SC2CCCCCCCCCCC2)cc1Cl [Compound 3e, Methyl 2-chloro-4-(cyclododecylsulfanyl)-5-sulfamoylbenzoate]	-13.3 kcal/mol	-13.3 kcal/mol	-8.08 kcal/mol	-12 kcal/mol	-7.77 kcal/mol	-14.8 kcal/mol	-10.5 kcal/mol	≥ -9.82 kcal/mol	≥ -5.26 kcal/mol	-10.7 kcal/mol	-7 kcal/mol	-13.3 kcal/mol	-9.08 kcal/mol	0.3%	9.6	-14.5 kcal/mol	-10.8 kcal/mol	-5.93 kcal/mol	-17.7 kcal/mol	-10 kcal/mol	ΔGintr CAIV [12]: -14 kcal/mol; ΔGobs CAIV [12]: -9.51 kcal/mol; ΔGintr CAVA [8]: ≥ -9.2 kcal/mol; ΔGobs CAVA [8]: ≥ -5.26 kcal/mol
COC(=O)c1cc(S(N)(=O)=O)c(Br)cc1S(=O)(=O)c1ccccc1 [Compound 10a, Methyl 2-(benzenesulfonyl)-4-bromo-5-sulfamoylbenzoate]	-12 kcal/mol	-13.4 kcal/mol	-9.89 kcal/mol	-15.6 kcal/mol	-13 kcal/mol	-14.9 kcal/mol	-12.3 kcal/mol			-11.3 kcal/mol	-9.2 kcal/mol	-14.8 kcal/mol	-12.3 kcal/mol	3.8%	8.4	-13.9 kcal/mol	-11.9 kcal/mol	-11.8 kcal/mol	-62.0	-14.2 kcal/mol	
COC(=O)c1cc(S(N)(=O)=O)c(S(=O)(=O)C2CCCCC2)cc1Cl [Compound 7b, Methyl 2-chloro-4-cyclohexylsulfonyl-5-sulfamoylbenzoate]	-7.15 kcal/mol	-10.7 kcal/mol	-5.28 kcal/mol	≥ -9.8 kcal/mol	≥ -5.26 kcal/mol	-10.5 kcal/mol	-5.9 kcal/mol	-10.5 kcal/mol	-5.66 kcal/mol	-9.7 kcal/mol	-5.66 kcal/mol	-10.6 kcal/mol	-6.09 kcal/mol	0.2%	9.8		-5.9 kcal/mol	-5.66 kcal/mol	-11.9 kcal/mol	-10.1 kcal/mol	ΔGintr CAXII [13]: -10.5 kcal/mol; ΔGobs CAXII [13]: -5.93 kcal/mol; ΔGintr CAVA [8]: -9.89 kcal/mol; ΔGobs CAVA [8]: -5.66 kcal/mol
COC(=O)c1cc(S(N)(=O)=O)c(Cl)cc1SCCc1ccccc1 [Compound 5d, Methyl 4-chloro-2-(2-phenylethylsulfanyl)-5-sulfamoylbenzoate]	-11.2 kcal/mol	-13.4 kcal/mol	-8.63 kcal/mol		-10.8 kcal/mol	-14.9 kcal/mol	-11 kcal/mol			-11.1 kcal/mol	-7.74 kcal/mol	-14.5 kcal/mol	-10.7 kcal/mol	0.5%	9.3	-14.9 kcal/mol	-11.5 kcal/mol	-11.9 kcal/mol	-15.3 kcal/mol	-15.6 kcal/mol	ΔGintr CAIV [12]: -12.5 kcal/mol; ΔGobs CAIV [12]: -8.48 kcal/mol
COC(=O)c1cc(S(N)(=O)=O)c(SCc2ccccc2)cc1Cl [Compound 3c, Methyl 4-(benzylsulfanyl)-2-chloro-5-sulfamoylbenzoate]	-12.1 kcal/mol	-14.2 kcal/mol	-9.15 kcal/mol	-13.8 kcal/mol	-9.68 kcal/mol	-14.6 kcal/mol	-10.5 kcal/mol	-10.3 kcal/mol	-5.81 kcal/mol	-10.9 kcal/mol	-7.31 kcal/mol	-13.9 kcal/mol	-9.87 kcal/mol	0.3%	9.5	-14.1 kcal/mol	-10.5 kcal/mol	-7.53 kcal/mol	-16.4 kcal/mol	-11.5 kcal/mol	ΔGintr CAVA [8]: ≥ -9.06 kcal/mol; ΔGobs CAVA [8]: ≥ -5.26 kcal/mol
COC(=O)c1cc(S(N)(=O)=O)c(Cl)cc1S(=O)(=O)C1CCCCC1 [Compound 9b, Methyl 4-chloro-2-cyclohexylsulfonyl-5-sulfamoyl-benzoate]	-12.8 kcal/mol	-13.7 kcal/mol	-10.5 kcal/mol	-16.2 kcal/mol	-13.8 kcal/mol	-15.4 kcal/mol	-13 kcal/mol			-12 kcal/mol	-10.2 kcal/mol	-15.3 kcal/mol	-13 kcal/mol	5.9%	8.2	-14 kcal/mol	-12.1 kcal/mol	-13 kcal/mol		-15.1 kcal/mol	ΔGintr CAIV [12]: -12 kcal/mol; ΔGobs CAIV [12]: -9.51 kcal/mol; ΔGintr CAVA [8]: -10.9 kcal/mol; ΔGobs CAVA [8]: -8.94 kcal/mol
COC(=O)c1cc(S(N)(=O)=O)c(Br)cc1Br [Compound 2, Methyl 2,4-dibromo-5-sulfamoyl-benzoate]	-9.85 kcal/mol	-13.3 kcal/mol	-9.3 kcal/mol	-13.5 kcal/mol	-10.3 kcal/mol	-13.6 kcal/mol	-10.5 kcal/mol	≥ -8.7 kcal/mol	≥ -5.26 kcal/mol	-9.27 kcal/mol	-6.67 kcal/mol	-13 kcal/mol	-9.99 kcal/mol	1.6%	8.8	-12.8 kcal/mol	-10.2 kcal/mol	-10.6 kcal/mol	-13.2 kcal/mol	-13.6 kcal/mol	ΔGintr CAXII [13]: -12.3 kcal/mol; ΔGobs CAXII [13]: -9.2 kcal/mol
